Reference: patent US12109221B2, “Combination therapy for treating cancer” (LEUKOS BIOTECH, S.L., priority 2017, dated 2024)

Assays:
[1] = tested on: AML cell lines (TPH-1 and MonoMac1); assay: Cell viability by flow cytometry 72 h after treatment, HTR1 antagonist plus cytarabine, combination index; format: cell-based, human; details: in combination with cytarabine, CI below 1 = synergism
Description: FIGS. 1A and 1B. […] FIG. 1A. Cell viability was measured by flow cytometry (correct FSC-SSC profile, 7-AAD-, Hoechst33342^low). Normalized number of live cells is graphed. Bars represent the mean value and error bars represent SEM. *** p<0.001; **** p<0.0001. NLC: Number of live cells (referred to control). FIG. 1B. Combination index (CI) value of each combination.
(§1) Synergy is determined herein by means of the Combination Index Model, described previously (Chou T C, Pharmacological Reviews 58: 621-681, 2006). The CI was measured using Compusyn open software. CI values below 1 indicate synergism. CI values about 1 indicate additivism and CI values above 1 indicate antagonisms.

[2] = tested on: AML cell lines (HL-60 and MonoMac-1); assay: Cell viability by flow cytometry 72 h after treatment, HTR1 antagonist plus azacitidine or decitabine, combination index; format: cell-based, human
Description: FIGS. 2A and 2B. […] MonoMac-1 cells were cultured for 72 h in a complete RPMI medium in the presence of 2, 5, 10 μM apomorphine (APO) or methiothepin (MET), and 100, 200, 1000 nM azacitidine (AZA). FIG. 2A. Cell viability was measured by flow cytometry (correct FSC-SSC profile, 7-AAD-, Hoechst33342^low). Normalized number of live cells is graphed. Bars represent the mean value and error bars represent SEM. *** p<0.001; **** p<0.0001. NLC: Number of live cells (referred to control). FIG. 2B. Combination index (CI) value of each combination.
FIGS. 3A and 3B. […] Cell viability was measured by flow cytometry (correct FSC-SSC profile, 7-AAD-, Hoechst33342^low). […]
Synergy is determined herein by means of the Combination Index Model, described previously (Chou T C, Pharmacological Reviews 58: 621-681, 2006). The CI was measured using Compusyn open software. […]
Next, the inventors examined the interaction between HTR1 antagonists and azacitidine. […] Cell viability was measured by flow cytometry (live cells according to the correct FSC-SSC profile, 7-AAD negativity and Hoechst 33342 positivity) 72 h after treatment.
Similarly, decitabine was also interrogated for its potential cytotoxic interaction with HTR1 antagonists. […] 72 h after treatment, cell viability was measured by flow cytometry (live cells according to the correct FSC-SSC profile, 7-AAD negativity and Hoechst 33342 positivity).

[3] = tested on: AML cell line (MonoMac-1); assay: Cell viability by flow cytometry 72 h after treatment, HTR1 antagonist plus cladribine, fludarabine or methotrexate, combination index; format: cell-based, human
Description: FIGS. 8A and 8B. […] MonoMac-1 cells were cultured for 72 h in a complete RPMI medium in the presence of 5, 10 μM apomorphine (APO) or methiothepin (MET), and 10, 27, 55 nM cladribine (CLD). FIG. 8A. Combination index (CI) value of CLD and APO combination. FIG. 8B. CI value of CLD and MET combination.
FIGS. 9A and 9B. […] MonoMac-1 cells were cultured for 72 h in a complete RPMI medium in the presence of 5, 10 μM apomorphine (APO) or methiothepin (MET), and 200, 500, 1000 nM fludarabine (FLD). FIG. 9A. CI value of FLD and APO combination. FIG. 9B. CI value of FLD and MET combination.
FIG. 10. […] MonoMac-1 cells were cultured for 72 h in a complete RPMI medium in the presence of 5, 10 μM apomorphine (APO), and 2.5, 6.25, 12.5 nM methotrexate (MTX). CI value of MTX and APO combination.
as §1
Cladribine is a cytostatic drug indicated for myeloid neoplasias. […] 72 h after treatment, cell viability was measured by flow cytometry (live cells according to the correct FSC-SSC profile, 7-AAD negativity and Hoechst 33342 positivity, and volumetrically counted).
The potential cytotoxic interaction of fludarabine with HTR1 antagonists was also examined on the same experimental conditions of the example 8. […] 72 h after treatment, cell viability was measured by flow cytometry (live cells according to the correct FSC-SSC profile, 7-AAD negativity and Hoechst 33342 positivity, and volumetrically counted).
Finally, the interaction of the antineoplastic drug methotrexate with HTR1 antagonist was studied. […] 72 h after treatment, cell viability was measured by flow cytometry (live cells according to the correct FSC-SSC profile, 7-AAD negativity and Hoechst 33342 positivity, and volumetrically counted).

[4] = tested on: MonoMac-1 AML cells; assay: In vivo xenotransplantation assay, human AML cells in bones by flow cytometry; design: species or system NSG mice; details: 5 mg/kg apomorphine and 30 mg/kg cytarabine, intraperitoneally, 5 days
Description: FIG. 4. […] Bulsulfan-conditioned NSG adult mice were intravenously injected with 1×10^6 MonoMac-1 AML cells. One week after transplantation, mice were treated with 5 mg/kg apomorphine (APO) and/or 30 mg/kg cytarabine (CYT) daily for 5 days. Mice were culled and bones were harvested. Human leukemia cells were detected based on the expression of hCD45 on the surface membrane by flow cytometry. Normalized number of human AML cells against control-treated mice is represented. Bars correspond to mean values and error bars to SEM. ** p<0.01; **** p<0.0001. hAML: #human AML cells (referred to 15 control). CTR: Control.
In order to verify that the synergic cytotoxic effect was also detectable in vivo, pharmacological-conditioned NSG mice were transplanted intravenously with 1×10^6 MonoMac-1 AML cells. One week after transplantation, mice were treated for 5 days with 5 mg/kg apomorphine and/or 30 mg/kg cytarabine, both of them intraperitoneally. Mice were culled and bones were harvested and analyzed for human leukemia by flow cytometry.

[5] = tested on: HL-60 and Ara-C-resistant HL-60; assay: Sensitivity to HTR1 antagonists, parental versus Ara-C-resistant cells, cell viability by flow cytometry; format: cell-based, human; details: HL-60 parental vs Ara-C-resistant HL-60; 72 h
[6] = tested on: KG-1 and Ara-C-resistant KG-1; assay: as above; format: cell-based, human; details: KG-1 parental vs Ara-C-resistant KG-1; 72 h
[7] = tested on: Sp1 gene expression in HL-60 AML cells; assay: Sp1 mRNA expression by semi-quantitative PCR; format: cell-based, human; details: HL-60 cells, 72 h; 10 µM apomorphine, 10 µM methiothepin, 5 µM SB224289
Description: FIG. 7. Treatment with HTR1 antagonists decreased Sp1 gene expression. HL-60 AML cells were treated with 10 μM apomorphine (APO), 10 μM methiothepin (MET) or 5 μM SB224289 (SB9) for 72 h. Total RNA was isolated and cDNA was obtained afterwards. Semi-quantitative PCR was performed to detect gene expression. Sp1 gene expression is represented as 2^(−ΔΔCt) using GAPDH as the endogenous control. Bars represent the mean value of triplicates. Error bars correspond to SEM. * p<0.05; **** p<0.0001. ddCt: 2^(−ΔΔCt).
At a gene expression level, the expression of Sp1 mRNA was studied. Sp1 has been implicated with chemotherapeutic resistance (Zhang et al. Mol Cancer 2015; 14:56). HL-60 AML cells were treated for 72 h with 10 µM apomorphine, 10 µM methiothepin and 5 µM SB224289. Total RNA as isolated and mRNA was retrotranscribed to cDNA. Semi-quantitative PCR was performed with specific TaqMan oligo pairs.

CN1CCc2cccc3c2[C@H]1Cc1ccc(O)c(O)c1-3 [apomorphine, (6aR)-6-methyl-5,6,6a, 7-tetrahydro-4H-dibenzo[de, g]quinoline-10,11-diol]
interaction with cytarabine according to the combination index model [1]: act synergically | interaction with azacitidine (combination index) ([2]; in combination with azacitidine): synergically anti-leukemic effect | interaction with decitabine (combination index) ([2]; in combination with decitabine): synergically anti-leukemic effect | interaction with cladribine (combination index) ([3]; in combination with cladribine): synergically anti-leukemic effect | interaction with fludarabine (combination index) ([3]; in combination with fludarabine): synergically antileukemic effect | interaction with methotrexate (combination index) ([3]; in combination with methotrexate, low and high concentrations): synergically anti-leukemic effect | effect of the combination in in vivo treatment of AML-bearing mice [4]: synergistic effect | EC50, parental compared to Ara-C-resistant cells [5]: equivalent EC50 values | EC50, parental compared to Ara-C-resistant cells [6]: equivalent EC50 values | Sp1 gene expression [7]: downregulation of Sp1 gene expression

Nc1ccn([C@@H]2O[C@H](CO)[C@H](O)[C@@H]2O)c(=O)n1 [Ara-C, 4-amino-1-[(2R,3S,4R,5R)-3,4-dihydroxy-5 (hydroxymethyl)oxolan-2-yl]pyrimidin-2-one]
effect of the combination in in vivo treatment of AML-bearing mice [4]: synergistic effect

Cc1nc(-c2ccc(-c3ccc(C(=O)N4CCc5cc6c(cc54)C4(CCN(C)CC4)CO6)cc3)c(C)c2)no1 [SB224289]
Sp1 gene expression [7]: downregulation of Sp1 gene expression
